Tests used:
EED (1-441)-His protein = EED (1-441)-His protein (Homo sapiens (Human), UniProt O75530); assay: EED-H3K27Me3 peptide competition binding assay by AlphaScreen; conditions: read-out: (a) IC50 EED Alphascreen binding Qualified
Source text: EED-H3K27Me3 peptide competition binding assay by AlphaScreen (α-screen)

[1] = target: wild type PRC2 (wtPRC2) complex (Homo sapiens (Human), UniProt O75530); assay: EED LC-MS assay; format: biochemical; conditions: read-out: (b) IC50 EED LC-MS Qualified
Chain of wild type PRC2 (wtPRC2) complex (O75530 whole entry): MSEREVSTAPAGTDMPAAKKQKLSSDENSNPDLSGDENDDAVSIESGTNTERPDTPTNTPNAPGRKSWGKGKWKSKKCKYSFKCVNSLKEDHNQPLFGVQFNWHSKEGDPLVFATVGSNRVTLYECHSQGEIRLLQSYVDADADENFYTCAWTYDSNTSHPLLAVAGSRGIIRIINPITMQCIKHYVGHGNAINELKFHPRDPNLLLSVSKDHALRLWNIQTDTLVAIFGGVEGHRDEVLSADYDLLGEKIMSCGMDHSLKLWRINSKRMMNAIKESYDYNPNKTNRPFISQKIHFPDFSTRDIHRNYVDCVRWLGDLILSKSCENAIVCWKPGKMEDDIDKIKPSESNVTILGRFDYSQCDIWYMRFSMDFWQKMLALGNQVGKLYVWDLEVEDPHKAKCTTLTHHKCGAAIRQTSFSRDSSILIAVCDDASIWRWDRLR
Chain of wild type PRC2 (wtPRC2) complex (Q15910 whole entry partner): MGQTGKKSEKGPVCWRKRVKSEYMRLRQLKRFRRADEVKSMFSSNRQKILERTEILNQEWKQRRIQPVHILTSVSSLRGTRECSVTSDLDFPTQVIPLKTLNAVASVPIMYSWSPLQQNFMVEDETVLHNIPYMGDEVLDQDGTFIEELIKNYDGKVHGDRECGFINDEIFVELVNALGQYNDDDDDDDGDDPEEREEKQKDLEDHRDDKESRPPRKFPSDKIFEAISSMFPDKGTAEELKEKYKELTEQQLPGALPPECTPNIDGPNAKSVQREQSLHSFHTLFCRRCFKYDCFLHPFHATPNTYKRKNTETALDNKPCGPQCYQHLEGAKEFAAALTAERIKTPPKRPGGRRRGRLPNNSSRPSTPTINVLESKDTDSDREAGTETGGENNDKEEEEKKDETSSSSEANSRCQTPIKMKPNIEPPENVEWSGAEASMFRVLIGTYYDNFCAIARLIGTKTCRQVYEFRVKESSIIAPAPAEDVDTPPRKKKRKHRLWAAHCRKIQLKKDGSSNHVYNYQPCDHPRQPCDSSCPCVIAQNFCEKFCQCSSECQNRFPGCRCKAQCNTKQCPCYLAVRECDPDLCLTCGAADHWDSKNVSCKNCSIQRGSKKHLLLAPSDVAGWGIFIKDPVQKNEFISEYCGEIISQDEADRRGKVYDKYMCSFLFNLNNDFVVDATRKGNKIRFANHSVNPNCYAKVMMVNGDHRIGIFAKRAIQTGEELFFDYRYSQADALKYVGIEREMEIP
Chain of wild type PRC2 (wtPRC2) complex (Q15022 whole entry partner): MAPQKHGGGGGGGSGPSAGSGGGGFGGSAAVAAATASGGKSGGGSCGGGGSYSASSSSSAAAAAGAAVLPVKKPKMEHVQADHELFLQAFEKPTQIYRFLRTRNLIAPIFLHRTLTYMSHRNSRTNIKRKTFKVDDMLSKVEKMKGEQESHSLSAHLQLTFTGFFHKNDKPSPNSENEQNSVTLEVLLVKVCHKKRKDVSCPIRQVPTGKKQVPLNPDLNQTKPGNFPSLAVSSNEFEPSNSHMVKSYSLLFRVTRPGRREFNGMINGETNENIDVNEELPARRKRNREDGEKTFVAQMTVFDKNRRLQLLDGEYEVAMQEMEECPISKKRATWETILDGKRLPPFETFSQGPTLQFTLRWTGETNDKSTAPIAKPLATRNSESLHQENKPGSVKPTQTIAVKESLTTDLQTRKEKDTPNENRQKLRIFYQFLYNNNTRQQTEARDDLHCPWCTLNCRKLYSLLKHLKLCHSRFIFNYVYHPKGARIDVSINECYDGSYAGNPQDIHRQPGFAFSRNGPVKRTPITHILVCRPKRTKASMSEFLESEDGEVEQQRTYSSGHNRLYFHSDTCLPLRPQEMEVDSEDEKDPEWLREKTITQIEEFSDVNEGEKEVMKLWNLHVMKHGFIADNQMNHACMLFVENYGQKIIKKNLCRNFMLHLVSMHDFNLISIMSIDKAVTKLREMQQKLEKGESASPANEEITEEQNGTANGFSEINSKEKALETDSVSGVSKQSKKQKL
Experimental: A 6 μL solution of 3 μM of the peptide substrate H3K27Me0 (histone H3[21-44]-biotin) in reaction buffer was added to initiate each reaction. […] ELISA (H3K27 Methylation) Assay

Chain of EED (1-441)-His protein (O75530 whole entry): as the sequence (O75530 whole entry) above

Compound | IC50 (EED (1-441)-His protein) [nM] | IC50 [1] [nM]
CS(=O)(=O)Nc1ccc(-c2cnc(NCc3cccc4c3CCO4)n3cnnc23)cc1F [Example 33, N-(4-(5-(((2,3-dihydrobenzofuran-4-yl)methyl)amino)-[1,2,4]triazolo[4,3-c]pyrimidin-8-yl)-2-fluorophenyl)methanesulfonamide] | 28.5 | 17.5
OCCn1cc(-c2cnc(NCc3cccc4c3CCO4)n3cnnc23)cn1 [Example 34, 2-(4-(5-(((2,3-dihydrobenzofuran-4-yl)methyl)amino)-[1,2,4]triazolo[4,3-c]pyrimidin-8-yl)-1H-pyrazol-1-yl)ethanol] | 37.5 | 49.4
CN(C)CCc1ccc(-c2cnc(NCc3cccc4c3CCO4)n3cnnc23)cc1 [Example 35, N-((2,3-dihydrobenzofuran-4-yl)methyl)-8-(4-(2-(dimethylamino)ethyl)phenyl)-[1,2,4]triazolo[4,3-c]pyrimidin-5-amine] | 8.3 | 15.3
Cc1cc(-c2cnc(NCc3cccc4c3CCO4)n3cnnc23)cnc1N1CCN(C)CC1 [Example 36, N-((2,3-dihydrobenzofuran-4-yl)methyl)-8-(5-methyl-6-(4-methylpiperazin-1-yl)pyridin-3-yl)-[1,2,4]triazolo[4,3-c]pyrimidin-5-amine] | 18.5 | 22.4
CS(=O)(=O)c1ccc(-c2cnc(NCc3c(F)ccc4c3CCO4)n3cnnc23)cc1 [Example 37, N-((5-fluoro-2,3-dihydrobenzofuran-4-yl)methyl)-8-(4-(methylsulfonyl)phenyl)-[1,2,4]triazolo[4,3-c]pyrimidin-5-amine] | 12.3 | 20.7
OCCOc1ccc(-c2cnc(NCc3cccc4c3CCO4)n3cnnc23)cc1 [Example 38, 2-(4-(5-(((2,3-dihydrobenzofuran-4-yl)methyl)amino)-[1,2,4]triazolo[4,3-c]pyrimidin-8-yl)phenoxy)ethanol] | 24.2 | 34.9
CS(=O)(=O)Nc1ccc(-c2cnc(NCc3c(F)ccc4c3CCO4)n3cnnc23)cc1F [Example 39, N-(2-fluoro-4-(5-(((5-fluoro-2,3-dihydrobenzofuran-4-yl)methyl)amino)-[1,2,4]triazolo[4,3-c]pyrimidin-8-yl)phenyl)methanesulfonamide] | 17.8 | 17.5
O=S(=O)(NCCO)c1ccc(-c2cnc(NCc3cccc4c3CCO4)n3cnnc23)cc1 [Example 40, 4-(5-(((2,3-dihydrobenzofuran-4-yl)methyl)amino)-[1,2,4]triazolo[4,3-c]pyrimidin-8-yl)-N-(2-hydroxyethyl)benzenesulfonamide] | 56.2 | 56.6
O=C(c1ccc(-c2cnc(NCc3cccc4c3CCO4)n3cnnc23)cc1)N1CCNCC1 [Example 41, (4-(5-(((2,3-dihydrobenzofuran-4-yl)methyl)amino)-[1,2,4]triazolo[4,3-c]pyrimidin-8-yl)phenyl)(piperazin-1-yl)methanone] | 13.2 | 9.7
CN(C)C(=O)c1ccc(-c2cnc(NCc3cccc4c3CCO4)n3cnnc23)cc1 [Example 42, 4-(5-(((2,3-dihydrobenzofuran-4-yl)methyl)amino)-[1,2,4]triazolo[4,3-c]pyrimidin-8-yl)-N,N-dimethylbenzamide] | 52.5 | 86.1
CN(C)C(=O)c1cccc(-c2cnc(NCc3cccc4c3CCO4)n3cnnc23)c1 [Example 43, 3-(5-(((2,3-dihydrobenzofuran-4-yl)methyl)amino)-[1,2,4]triazolo[4,3-c]pyrimidin-8-yl)-N,N-dimethylbenzamide] | 30.9 | 33.1
Fc1ccc2c(c1CNc1ncc(-c3cccnc3)c3nncn13)CCO2 [Example 44, N-((5-fluoro-2,3-dihydrobenzofuran-4-yl)methyl)-8-(pyridin-3-yl)-[1,2,4]triazolo[4,3-c]pyrimidin-5-amine] | 12.8 | 19.2
Fc1ccc2c(c1CNc1ncc(-c3ccncc3)c3nncn13)CCO2 [Example 45, N-((5-fluoro-2,3-dihydrobenzofuran-4-yl)methyl)-8-(pyridin-4-yl)-[1,2,4]triazolo[4,3-c]pyrimidin-5-amine] | 20 | 32.8
CC(c1ccc(-c2cnc(NCc3c(F)ccc4c3CCO4)n3cnnc23)cc1)N1CCCC1 (centres unmarked) [Example 46, N-((5-fluoro-2,3-dihydrobenzofuran-4-yl)methyl)-8-(4-(1-(pyrrolidin-1-yl)ethyl)phenyl)-[1,2,4]triazolo[4,3-c]pyrimidin-5-amine] | 43.5 | 64
Fc1ccncc1-c1cnc(NCc2c(F)ccc3c2CCO3)n2cnnc12 [Example 47, N-((5-fluoro-2,3-dihydrobenzofuran-4-yl)methyl)-8-(4-fluoropyridin-3-yl)-[1,2,4]triazolo[4,3-c]pyrimidin-5-amine] | 5.2 | 4.9
Nc1ccc(-c2cnc(NCc3cccc4c3CCO4)n3cnnc23)cn1 [Example 48, 8-(6-aminopyridin-3-yl)-N-((2,3-dihydrobenzofuran-4-yl)methyl)-[1,2,4]triazolo[4,3-c]pyrimidin-5-amine] | 12.9 | 30.2

Compound | IC50 (EED (1-441)-His protein) [nM] | IC50 [1] [nM]
Cc1cc(-c2cnc(NCc3cccc4c3CCO4)n3cnnc23)ccc1C(=O)N(C)C [Example 49, 4-(5-(((2,3-dihydrobenzofuran-4-yl)methyl)amino)-[1,2,4]triazolo[4,3-c]pyrimidin-8-yl)-N,N,2-trimethylbenzamide] | 12.5 | 12.8
Clc1ccncc1-c1cnc(NCc2cccc3c2CCO3)n2cnnc12 [Example 50, 8-(4-chloropyridin-3-yl)-N-((2,3-dihydrobenzofuran-4-yl)methyl)-[1,2,4]triazolo[4,3-c]pyrimidin-5-amine] | 19.1 | 41.2
c1cc(CNc2ncc(-c3cncnc3)c3nncn23)c2c(c1)OCC2 [Example 51, N-((2,3-dihydrobenzofuran-4-yl)methyl)-8-(pyrimidin-5-yl)-[1,2,4]triazolo[4,3-c]pyrimidin-5-amine] | 136 | 346
Cc1ccc(-c2cnc(NCc3cccc4c3CCO4)n3cnnc23)cn1 [Example 52, N-((2,3-dihydrobenzofuran-4-yl)methyl)-8-(6-methylpyridin-3-yl)-[1,2,4]triazolo[4,3-c]pyrimidin-5-amine] | 70.9 | 47
CN(C)CCc1ccc(-c2cnc(NCc3cccc4c3CCO4)n3cnnc23)cn1 [Example 53, N-((2,3-dihydrobenzofuran-4-yl)methyl)-8-(6-(2-(dimethylamino)ethyl)pyridin-3-yl)-[1,2,4]triazolo[4,3-c]pyrimidin-5-amine] | 12.4 | 28.7
COc1ncc(-c2cnc(NCc3cccc4c3CCO4)n3cnnc23)cn1 [Example 54, N-((2,3-dihydrobenzofuran-4-yl)methyl)-8-(2-methoxypyrimidin-5-yl)-[1,2,4]triazolo[4,3-c]pyrimidin-5-amine] | 29.1 | 54.6
CN(C)C(=O)c1ccc(-c2cnc(NCc3c(F)ccc4c3CCO4)n3cnnc23)cc1 [Example 55, 4-(5-(((5-fluoro-2,3-dihydrobenzofuran-4-yl)methyl)amino)-[1,2,4]triazolo[4,3-c]pyrimidin-8-yl)-N,N-dimethylbenzamide] | 21.1 | 31.8
CS(=O)(=O)c1ccc(-c2cnc(NCc3c(F)ccc4c3CCO4)n3cnnc23)cn1 [Example 56, N-((5-fluoro-2,3-dihydrobenzofuran-4-yl)methyl)-8-(6-(methylsulfonyl)pyridin-3-yl)-[1,2,4]triazolo[4,3-c]pyrimidin-5-amine] | 19.6 | 30.9
Cc1ccc(-c2cnc(NCc3c(F)ccc4c3CCO4)n3cnnc23)cn1 [Example 57, N-((5-fluoro-2,3-dihydrobenzofuran-4-yl)methyl)-8-(6-methylpyridin-3-yl)-[1,2,4]triazolo[4,3-c]pyrimidin-5-amine] | 8.4 | 18.6
Nc1cc(F)c(-c2cnc(NCc3cccc4c3CCO4)n3cnnc23)cn1 [Example 58, 8-(6-amino-4-fluoropyridin-3-yl)-N-((2,3-dihydrobenzofuran-4-yl)methyl)-[1,2,4]triazolo[4,3-c]pyrimidin-5-amine] | 6.3 | 13
Cc1noc(C)c1-c1cnc(NCc2cccc3c2CCO3)n2cnnc12 [Example 59, N-((2,3-dihydrobenzofuran-4-yl)methyl)-8-(3,5-dimethylisoxazol-4-yl)-[1,2,4]triazolo[4,3-c]pyrimidin-5-amine] | 31.8 | 38.7
Cc1ncc(-c2cnc(NCc3cccc4c3CCO4)n3cnnc23)cn1 [Example 60, N-((2,3-dihydrobenzofuran-4-yl)methyl)-8-(2-methylpyrimidin-5-yl)-[1,2,4]triazolo[4,3-c]pyrimidin-5-amine] | 19.5 | 47
CN(C)c1ccc(-c2cnc(NCc3cccc4c3CCO4)n3cnnc23)cn1 [Example 61, N-((2,3-dihydrobenzofuran-4-yl)methyl)-8-(6-(dimethylamino)pyridin-3-yl)-[1,2,4]triazolo[4,3-c]pyrimidin-5-amine] | 12.9 | 19.7
N#Cc1ccc(-c2cnc(NCc3cccc4c3CCO4)n3cnnc23)cn1 [Example 62, 5-(5-(((2,3-dihydrobenzofuran-4-yl)methyl)amino)-[1,2,4]triazolo[4,3-c]pyrimidin-8-yl)picolinonitrile] | 16 | 29.4
CCOc1ccc(-c2cnc(NCc3cccc4c3CCO4)n3cnnc23)cn1 [Example 63, N-((2,3-dihydrobenzofuran-4-yl)methyl)-8-(6-ethoxypyridin-3-yl)-[1,2,4]triazolo[4,3-c]pyrimidin-5-amine] | 75.6 | 68.6
